Source: patent EP0052361A1, “Novel 16-membered macrolide compounds” (SANRAKU-OCEAN CO., LTD., priority 1980, dated 1982)
In brackets after ≈: the same amount, converted by molar mass. Where two headings read alike, the source gives them in different places.

Legend:
[1] = tested on: Staphylococcus aureus MS9861; assay: MIC by tube dilution method in brain heart infusion broth; format: cell-based; conditions: MS9861, pH 7.5, read-out: Antimicrobial activity (MIC) Staphylococcus aureus MS9861
Procedure: (§1) The minimum growth inhibitory concentrations (MIC) of the compounds (I) against various microorganisms were measured by a tube dilution method in a brain heart infusion broth (pH 7.5) as a medium.

[2] = tested on: Klebsiella pneumoniae PCI602; assay: as above; format: cell-based; conditions: Klebsiella pneumoniae
Procedure: as §1

[3] = tested on: Bacillus subtilis NRRL B-558; assay: as above; format: cell-based; conditions: Bacillus subtilis
Procedure: as §1

[4] = tested on: Staphylococcus aureus 209P; assay: as above; format: cell-based; conditions: Staphylococcus aureus, 209P
Procedure: as §1

[5] = tested on: Staphylococcus aureus MS10225; assay: as above; format: cell-based; conditions: Staphylococcus aureus, MS10225, pH 7.5, read-out: Minimum growth inhibitory concentration
Procedure: as §1

[6] = tested on: Corynebacterium bovis 1810; assay: as above; format: cell-based; conditions: Corynebacterium bovis, 1810, pH 7.5, read-out: Minimum growth inhibitory concentration
Procedure: as §1

[7] = tested on: Shigella dysenteriae JS 11910; assay: as above; format: cell-based; conditions: JS11910, pH 7.5, read-out: Minimum growth inhibitory concentration
Procedure: as §1

[8] = tested on: Sartina lutea PCI 1001; assay: as above; format: cell-based; conditions: pH 7.5, read-out: Minimum growth inhibitory concentration
Procedure: as §1

[9] = tested on: Escherichia coli NIHJ; assay: as above; format: cell-based; conditions: Escherichia coli, pH 7.5, read-out: Minimum growth inhibitory concentration
Procedure: as §1

[10] = tested on: Mycoplasma gallisepticum KP-13; assay: as above; format: cell-based; conditions: Mycoplasmoides gallisepticum, KP13, pH 7.5, read-out: Minimum growth inhibitory concentration
Procedure: as §1

[11] = Stability on standing at room temperature; format: physicochemical; conditions: left to stand at room temperature for one month
From the text: Stable even when left to stand at room temperature for one month.

[12] = PCI602, pH 7.5, read-out: Antimicrobial activity (MIC) Klebsiella pneumonae PCI602
[13] = NRRLB558, pH 7.5, read-out: Antimicrobial activity (MIC) Bacillus subtilis NRRL B558
[14] = pH 7.5, read-out: Antimicrobial activity (MIC) Staphylococcus aureus 209P

Compound	MIC [1]	MIC [2, 12]	MIC [3, 13]	MIC [4, 14]	MIC [5]	MIC ([2]; PCI602, pH 7.5, read-out: Minimum growth inhibitory concentration)	MIC [6]	MIC [7]	MIC [8]	MIC ([3]; NRRLB558, pH 7.5, read-out: Minimum growth inhibitory concentration)	MIC [9]	MIC [10]	MIC ([4]; pH 7.5, read-out: Minimum growth inhibitory concentration)	Stability [11]
CCC1OC(=O)CC(O)C(C)C(OC2OC(C)C(OC3CC(C)(O)C(OC(=O)CC(C)C)C(C)O3)C(N(C)C)C2O)C(CC=O)CC(C)C(=O)C=CC(C)=CC1C (stereo not shown) [R1=H; R2=H; YR3=COCH2CH(CH3)2, 4"-isovaleryl YT-3927]	1.6 µg/mL (≈ 1.98 µM)	6.3 µg/mL (≈ 7.78 µM)	0.4 µg/mL (≈ 0.494 µM)	0.4 µg/mL (≈ 0.494 µM)	–	–	–	–	–	–	–	–	–	–
CCC1OC(=O)CC(O)C(C)C(OC2OC(C)C(OC3CC(C)(O)C(O)C(C)O3)C(N(C)C)C2O)C(CC=O)CC(C)C(=O)C=CC(C)=CC1C (stereo not shown) [Antibiotic YT-3927, antibiotic YT-3927]	3.1 µg/mL (≈ 4.27 µM)	3.1 µg/mL (≈ 4.27 µM)	0.4 µg/mL (≈ 0.551 µM)	0.4 µg/mL (≈ 0.551 µM)	0.78 µg/mL (≈ 1.07 µM)	3.12 µg/mL (≈ 4.3 µM)	0.39 µg/mL (≈ 0.537 µM)	1.56 µg/mL (≈ 2.15 µM)	< 0.2 µg/mL	0.39 µg/mL (≈ 0.537 µM)	25 µg/mL (≈ 34.4 µM)	0.02 µg/mL (≈ 0.0276 µM)	0.39 µg/mL (≈ 0.537 µM)	Stable
CCC1OC(=O)CC(O)C(C)C(OC2OC(C)C(OC3CC(C)(O)C(OC(=O)C(O)c4ccccc4)C(C)O3)C(N(C)C)C2O)C(CC=O)CC(C)C(=O)C=CC(C)=CC1C (stereo not shown)	1.6 µg/mL (≈ 1.86 µM)	3.1 µg/mL (≈ 3.6 µM)	1.6 µg/mL (≈ 1.86 µM)	< 0.2 µg/mL	–	–	–	–	–	–	–	–	–	–
CCC1OC(=O)CC(O)C(C)C(OC2OC(C)C(OC3CC(C)(OC(C)=O)C(OC(=O)CC(C)C)C(C)O3)C(N(C)C)C2O)C(CC=O)CC(C)C(=O)C=CC(C)=CC1C (stereo not shown) [R1=H; R2=COCH3; YR3=COCH2CH(CH3)2]	1.6 µg/mL (≈ 1.88 µM)	25 µg/mL (≈ 29.3 µM)	0.8 µg/mL (≈ 0.939 µM)	0.8 µg/mL (≈ 0.939 µM)	–	–	–	–	–	–	–	–	–	–

Further compounds by falling MIC [1], results first:

MIC [1]	MIC [2, 12]	MIC [3, 13]	MIC [4, 14]	Compound	MIC [5]	MIC ([2]; PCI602, pH 7.5, read-out: Minimum growth inhibitory concentration)	MIC [6]	MIC [7]	MIC [8]	MIC ([3]; NRRLB558, pH 7.5, read-out: Minimum growth inhibitory concentration)	MIC [9]	MIC [10]	MIC ([4]; pH 7.5, read-out: Minimum growth inhibitory concentration)	Stability [11]
6.3 µg/mL (≈ 7.17 µM)	> 100 µg/mL	0.4 µg/mL (≈ 0.456 µM)	1.6 µg/mL (≈ 1.82 µM)	CCC1OC(=O)CC(O)C(C)C(OC2OC(C)C(OC3CC(C)(OC(C)=O)C(OC(=O)C4CCCCC4)C(C)O3)C(N(C)C)C2O)C(CC=O)CC(C)C(=O)/C=C/C(C)=C/C1C (stereo not shown)	–	–	–	–	–	–	–	–	–	–
6.3 µg/mL (≈ 7.16 µM)	3.1 µg/mL (≈ 3.52 µM)	0.4 µg/mL (≈ 0.454 µM)	< 0.2 µg/mL	CCC1OC(=O)CC(O)C(C)C(OC2OC(C)C(OC3CC(C)(O)C(OS(=O)(=O)c4ccc(C)cc4)C(C)O3)C(N(C)C)C2O)C(CC=O)CC(C)C(=O)/C=C/C(C)=C/C1C (stereo not shown)	–	–	–	–	–	–	–	–	–	–
3.1 µg/mL (≈ 3.44 µM)	25 µg/mL (≈ 27.7 µM)	0.8 µg/mL (≈ 0.887 µM)	0.8 µg/mL (≈ 0.887 µM)	CCC1OC(=O)CC(O)C(C)C(OC2OC(C)C(OC3CC(C)(O)C(OC(=O)C(OC(C)=O)c4ccccc4)C(C)O3)C(N(C)C)C2O)C(CC=O)CC(C)C(=O)/C=C/C(C)=C/C1C (stereo not shown)	–	–	–	–	–	–	–	–	–	–
3.1 µg/mL (≈ 3.64 µM)	100 µg/mL (≈ 117 µM)	0.4 µg/mL (≈ 0.469 µM)	1.6 µg/mL (≈ 1.88 µM)	CCC1OC(=O)CC(OC(C)=O)C(C)C(OC2OC(C)C(OC3CC(C)(OC(C)=O)C(OC(C)=O)C(C)O3)C(N(C)C)C2O)C(CC=O)CC(C)C(=O)C=CC(C)=CC1C (stereo not shown) [R1=COCH3; R2=COCH3; YR3=COCH3, 3,3",4"-triacetyl YT-3927]	–	–	–	–	–	–	–	–	–	–
1.6 µg/mL (≈ 1.8 µM)	3.1 µg/mL (≈ 3.49 µM)	< 0.2 µg/mL	0.4 µg/mL (≈ 0.451 µM)	CCC1OC(=O)CC(O)C(C)C(OC2OC(C)C(OC3CC(C)(OC(C)=O)C(OC(=O)Cc4cccnc4)C(C)O3)C(N(C)C)C2O)C(CC=O)CC(C)C(=O)C=CC(C)=CC1C (stereo not shown)	–	–	–	–	–	–	–	–	–	–
